According to patent publication US11739087B2, “Inhibiting (α-v)(β-6) integrin” (Morphic Therapeutic, Inc., priority 2018, dated 2023):

Assays:
[1] = MDCK permeability assay, wild type MDCK cells with no inhibitor (A→B); assay type: in vitro ADME, Canine; conditions: dog, no Pgp inhibitor, apical to basolateral
Protocol: (§1) Compounds were tested for permeability in an MDCK permeability assay. This assay measures the ability of compounds to cross a layer of Madin-Darby Canine Kidney (MDCK) cells from the apical to basolateral side (A→B). This measurement is predictive of the ability of compounds to be absorbed in the gut following oral dosing, an essential characteristic of an orally administered small molecule integrin inhibitor drug.
(§2) The assay is run in two formats. One uses wild type MDCK cells with no inhibitor. This method works well in determining the passive permeability of compounds with low efflux by P-glyocprotein (Pgp), and was used to assess permeability of a Reference Compound having the chemical formula shown below.
(§3) Cell Culture and Maintenance: • Cell stock cultures (MDCK or MDCK MDR1) are maintained in MEM+10% FBS+1% NEAA, grown in 75 cm^2 tissue culture treated flasks and split (passed) 2 times weekly to maintain desired confluence. • For maintenance passage: trypsinized cells are routinely distributed into new flasks at a standard passage ratio of 1:20.
(§4) Seeding assay plates: MDCK assay plates are seeded with MDCK or MDCK MCR1 cells 3-4 days prior to running the assay. 24-well plates are seeded at a cell density of 0.88×10^5/well in a 400 μL apical chamber volume (2.2×10^5/mL) with a […] volume of growth medium to the 24-well basal chamber. […]

[2] = system: Madin-Darby Canine Kidney (MDCK) cells; assay: as above; assay type: in vitro ADME; conditions: no Pgp inhibitor, apical to basolateral
Protocol: as §1, §2, §3, §4

O=C(O)CN1CCC(C(=O)N2CCC(c3ccc4c(n3)NCCC4)CC2)CC1 [Reference Compound]
Papp A→B at 90 min, 5 μM [1]: < 0.23 ×10⁻⁶ cm/s
MDCK (A −> B) [2]: less than 0.23
